pIC50: −log10 of the molar value. Structures can show the parent of a compound that is named as a salt.
How the values were obtained:
[1] = molecular target: T1, N-type calcium channels in IMR32 human neuroblastoma cells (Homo sapiens, UniProt Q00975); assay: FLPIMR assay (FLIPR, IMR32 cells); assay type: cell-based; settings: nitrendipine present, read-out: FLP IMR IC50
T1 construct: expressing neuronal N-type calcium channels upon differentiation, was used for this assay; host or cells: IMR32 human neuroblastoma cells differentiated with dibutyryl cAMP and 5-bromo-2-deoxyuridine
Procedure: In Vitro Protocol: FLPIMR Assays
Calcium flux through voltage-sensitive calcium channels was assessed by time-resolved monitoring of the fluorescence of pre-loaded intracellular calcium-sensitive dyes using FLIPR, a fluorescent image plate reader (Molecular Devices Co.). The IMR32 human neuroblastoma cell line (ATCC, CRL-127), expressing neuronal N-type calcium channels upon differentiation, was used for this assay. IMR32 cells were grown in MEM media (Gibco BRL, 11095-080), supplemented with 10% fetal bovine serum (Gibco BRL, 26140-087), 1% antibiotic-antimycotic (Gibco BRL, 15240-096), 1% L-glutamine (Gibco BRL, 25030-032). Cells, grown to confluency, were differentiated for a period of 7-10 days, or longer, by adding 1 mM dibutyryl cAMP (Sigma D-0627) and 2.5 μM 5-bromo-2-deoxyuridine (Sigma B-9285) to the media. The differentiation media was fed continuously to cells until the cells were used in an experiment.
Differentiated cells were removed from T150 flasks by aspirating media and adding 10 mL harvesting solution consisting of 0.5 mM EDTA in DPBS without calcium or magnesium (Gibco BRL, 14190-144). Cells were then centrifuged at 1500 rpm (≈500 g) for 3 minutes in a Beckman tabletop centrifuge in order to remove the harvesting solution. Cells were resuspended in 10 mL of media containing 1 μM Oregon Green 488 Bapta-1 dye (Molecular Probes, O-6807) and placed in a 37° C. shaking waterbath for 1 hour. The dye-containing media was then diluted with 40 mL buffer (composition in mM: 1.25 CaCl2, 1.2 MgSO4, 11 glucose, 10 HEPES, 3.0 KCl, 137.0 NaCl, pH 7.4 with Tris base) and cells were centrifuged at 1500 rpm (≈500 g) for 3 minutes. Cells were resuspended and washed a second time with 40-50 mL incubation buffer. After centrifugation, cells were resuspended and 200 μL aliquots were plated on black-sided 96-well plates (Costar, 3603) for use in FLIPR. The plates of cells were centrifuged at 750 rpm (≈100 g) for 1.5 minutes to settle the cells to the bottom of the wells. Cells were given one final wash at setting BF1F in a Denley Cellwash (Labsystems, CW018B). The residual buffer volume was adjusted to 50 μL. A 5-minute drug-preincubation period at 35° C. was initiated when 50 μL of drug-containing buffer was pipetted into the cell plate with the 96-well pipettor integrated in the FLIPR apparatus. Nitrendipine, at a concentration of 4 μM, was included in this buffer, in addition to compounds of the present invention at various concentrations. […] Fluorescent counts were monitored at 20 s intervals for 360 s, beginning 60 s prior to the delivery of drug-containing buffer. Following drug addition, 100 μL aliquots of a high K^+, depolarizing stimulus (composition in mM: 1.25 CaCl2, 1.2 MgSO4, 11 glucose, 10 HEPES, 140.0 KCl, pH 7.4 with Tris base) were added to each well, and fluorescence was monitored at 1 s intervals for 120 s, beginning 10 s prior to the stimulus addition. CCD camera exposure time was 0.4 s; laser excitation was at 488 nm with a power of 0.2-0.5W; and a 510 to 560 nm bandpass interference filter preceded the camera.
Data was analyzed as a summation of fluorescent counts above basal during the stimulation period (an approximation of area under the curve), after normalizing the data with a spatial uniformity correction (for variations in laser illumination and cell density) and a negative control correction (zero calcium increase defined as the fluorescence reading in the presence of saturating pharmacologic block of the N-type calcium channel). […] This component was not included in any calculations.
Drug effects were expressed as percent inhibition of fluorescence from an average of 8 K^+-stimulated wells which were pre-treated in the drug incubation period with buffer only. Data was analyzed using FLIPR software and Microsoft Excel spreadsheet software.

[2] = test system: acetic acid-induced writhing in Swiss-Webster mice; assay: Anti-writhing test in mice (AW); assay type: in vivo; settings: 10 mg/kg
Source text: Anti-Writhing Test in Mice (AW) Test Protocol
The purpose of this test is to evaluate drugs for analgesic-like activity. The AW test determines the effect of drugs on the response to a presumed painful stimulus in mice and is used as a preliminary in vivo procedure for the identification of potential analgesic agents.
Known analgesics with low, moderate, or high efficacy in man allow mice to tolerate intra-peritoneal administration of dilute acetic acid as evidenced by lesser incidence of writhing movements. The AW test measures the nociceptive response to acetic acid in mice and provides an objective, reliable, and quantitative estimate of efficacy and potency of potential analgesic compounds. This test serves as a preclinical predictor of analgesic activity.
Subjects are male Swiss-Webster mice (25-35 g).
Compounds are dissolved or suspended in physiological saline containing 2% Emulphor. Suspensions are subjected to ultrasonication for 3 minutes. Drug doses are expressed as the active moiety and are normally administered to mice (10, 30, and 100 mg/kg IP, SC, PO, or IM) in a volume of 10 mL/kg, 1 hour prior to testing; ICV doses (in μg/kg) are administered in a volume of 0.5 mL/kg, 5 minutes prior to testing. Animals dosed PO are fasted for 16 hours prior to dosing. Groups of eight mice are tested with each dose or the vehicle solution (control group).
Mice are treated with a dilute solution of acetic acid (0.6%, 10 mL/kg IP) which elicits writhing. In four successive trials, one pair of mice from each treatment group is placed in one of four adjacent clear plexiglas chambers (4 in×4 in×4 in). This allows the simultaneous observation of four pairs of mice representing all treatments and controls throughout the test. Writhing movements (abdominal contractions, stretching of the torso and hind legs, and concave arching of the back) are counted for 5 minutes commencing 7 minutes after acetic acid administration.
Drug effects on acetic acid-induced writhing are expressed as percent suppression of writhing relative to the vehicle-treated control group run in parallel with treated animals. The writhing tallies from pairs of animals are summed for each treatment and are divided by the summed writhing in the control group. The ED50s for suppression of writhing are determined by nonlinear regression analysis.

T1 sequence (Q00975 whole entry): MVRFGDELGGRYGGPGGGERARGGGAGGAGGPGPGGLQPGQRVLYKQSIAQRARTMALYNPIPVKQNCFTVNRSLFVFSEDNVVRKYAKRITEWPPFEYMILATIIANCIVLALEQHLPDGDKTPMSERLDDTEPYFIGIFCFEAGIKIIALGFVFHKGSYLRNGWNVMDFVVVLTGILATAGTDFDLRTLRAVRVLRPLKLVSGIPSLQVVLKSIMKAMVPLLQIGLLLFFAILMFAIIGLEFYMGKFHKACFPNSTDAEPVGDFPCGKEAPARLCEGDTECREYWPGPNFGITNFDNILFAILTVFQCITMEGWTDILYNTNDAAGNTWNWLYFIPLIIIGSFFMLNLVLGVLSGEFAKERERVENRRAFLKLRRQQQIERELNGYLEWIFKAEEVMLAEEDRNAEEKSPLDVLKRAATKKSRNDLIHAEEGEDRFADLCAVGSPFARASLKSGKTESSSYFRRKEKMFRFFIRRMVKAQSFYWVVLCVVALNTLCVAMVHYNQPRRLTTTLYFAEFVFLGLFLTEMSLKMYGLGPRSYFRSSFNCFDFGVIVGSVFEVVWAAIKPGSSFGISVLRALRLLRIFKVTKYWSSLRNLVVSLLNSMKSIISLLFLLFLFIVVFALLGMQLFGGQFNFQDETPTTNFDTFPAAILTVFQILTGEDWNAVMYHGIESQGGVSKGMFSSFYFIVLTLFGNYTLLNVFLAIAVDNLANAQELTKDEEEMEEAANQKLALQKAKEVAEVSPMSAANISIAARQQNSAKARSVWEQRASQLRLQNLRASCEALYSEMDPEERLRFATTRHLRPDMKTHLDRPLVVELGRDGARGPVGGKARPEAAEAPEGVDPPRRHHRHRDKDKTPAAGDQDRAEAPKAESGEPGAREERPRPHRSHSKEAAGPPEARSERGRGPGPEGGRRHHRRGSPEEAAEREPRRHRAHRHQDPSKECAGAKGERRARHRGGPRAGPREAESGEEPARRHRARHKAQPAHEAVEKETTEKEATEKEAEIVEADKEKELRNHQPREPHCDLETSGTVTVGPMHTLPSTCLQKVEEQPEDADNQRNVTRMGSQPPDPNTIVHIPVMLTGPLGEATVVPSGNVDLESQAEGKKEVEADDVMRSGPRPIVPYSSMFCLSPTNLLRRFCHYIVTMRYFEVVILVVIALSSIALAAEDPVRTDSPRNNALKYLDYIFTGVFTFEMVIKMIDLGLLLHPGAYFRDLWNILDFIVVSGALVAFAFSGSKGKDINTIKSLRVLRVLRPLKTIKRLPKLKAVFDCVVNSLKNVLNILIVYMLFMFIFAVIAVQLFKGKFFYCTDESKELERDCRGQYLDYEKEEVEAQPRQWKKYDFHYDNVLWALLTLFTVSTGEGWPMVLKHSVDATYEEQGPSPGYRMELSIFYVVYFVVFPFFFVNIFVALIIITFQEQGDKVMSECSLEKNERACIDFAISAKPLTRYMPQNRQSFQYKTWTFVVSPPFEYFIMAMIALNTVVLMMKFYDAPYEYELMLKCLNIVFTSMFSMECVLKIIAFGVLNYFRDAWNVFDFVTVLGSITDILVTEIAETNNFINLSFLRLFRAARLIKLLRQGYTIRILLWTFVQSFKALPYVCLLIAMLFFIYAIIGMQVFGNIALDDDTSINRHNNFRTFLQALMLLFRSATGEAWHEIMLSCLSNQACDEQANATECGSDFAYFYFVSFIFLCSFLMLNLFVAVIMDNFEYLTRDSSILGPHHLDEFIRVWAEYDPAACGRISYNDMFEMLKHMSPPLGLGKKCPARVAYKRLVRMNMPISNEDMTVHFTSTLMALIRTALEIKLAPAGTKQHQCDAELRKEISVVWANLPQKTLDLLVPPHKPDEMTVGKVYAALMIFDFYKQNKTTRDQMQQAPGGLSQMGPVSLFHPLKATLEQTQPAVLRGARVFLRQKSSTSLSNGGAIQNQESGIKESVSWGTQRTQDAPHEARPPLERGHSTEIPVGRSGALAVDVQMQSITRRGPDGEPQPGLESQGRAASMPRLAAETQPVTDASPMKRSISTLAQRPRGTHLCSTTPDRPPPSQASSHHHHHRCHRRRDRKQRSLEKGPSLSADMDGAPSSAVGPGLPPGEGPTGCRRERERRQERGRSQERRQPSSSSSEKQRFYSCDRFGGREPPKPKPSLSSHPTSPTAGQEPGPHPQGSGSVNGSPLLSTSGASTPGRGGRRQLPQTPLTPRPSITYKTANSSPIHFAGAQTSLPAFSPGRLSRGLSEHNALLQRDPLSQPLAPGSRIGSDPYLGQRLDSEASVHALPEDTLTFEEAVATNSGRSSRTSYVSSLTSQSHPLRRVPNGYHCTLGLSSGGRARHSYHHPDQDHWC
T1 sequence (P54289 25-956 partner limits assumed): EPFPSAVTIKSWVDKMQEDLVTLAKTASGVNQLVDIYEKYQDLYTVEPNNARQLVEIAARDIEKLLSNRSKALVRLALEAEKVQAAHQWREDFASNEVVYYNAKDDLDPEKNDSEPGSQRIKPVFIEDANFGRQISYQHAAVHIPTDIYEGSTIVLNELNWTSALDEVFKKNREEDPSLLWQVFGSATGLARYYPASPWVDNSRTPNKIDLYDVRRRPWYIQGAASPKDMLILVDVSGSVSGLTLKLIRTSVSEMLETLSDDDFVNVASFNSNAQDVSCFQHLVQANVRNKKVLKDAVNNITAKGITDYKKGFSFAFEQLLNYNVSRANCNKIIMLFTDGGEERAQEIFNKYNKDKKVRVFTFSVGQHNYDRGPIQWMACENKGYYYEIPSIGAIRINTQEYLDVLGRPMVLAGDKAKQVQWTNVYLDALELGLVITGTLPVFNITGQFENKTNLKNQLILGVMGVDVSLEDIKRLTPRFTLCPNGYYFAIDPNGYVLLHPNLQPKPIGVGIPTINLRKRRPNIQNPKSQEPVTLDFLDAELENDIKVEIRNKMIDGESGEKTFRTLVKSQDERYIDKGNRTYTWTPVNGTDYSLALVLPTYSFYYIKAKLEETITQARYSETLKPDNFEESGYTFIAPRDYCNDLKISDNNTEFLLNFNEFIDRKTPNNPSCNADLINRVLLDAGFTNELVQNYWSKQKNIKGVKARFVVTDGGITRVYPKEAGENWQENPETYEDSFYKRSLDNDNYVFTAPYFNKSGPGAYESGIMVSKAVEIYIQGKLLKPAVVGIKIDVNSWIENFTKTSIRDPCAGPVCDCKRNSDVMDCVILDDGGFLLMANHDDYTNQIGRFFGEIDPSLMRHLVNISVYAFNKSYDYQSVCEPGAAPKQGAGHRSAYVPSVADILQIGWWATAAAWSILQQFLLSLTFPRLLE
T1 sequence (P54289 957-1103 partner limits assumed): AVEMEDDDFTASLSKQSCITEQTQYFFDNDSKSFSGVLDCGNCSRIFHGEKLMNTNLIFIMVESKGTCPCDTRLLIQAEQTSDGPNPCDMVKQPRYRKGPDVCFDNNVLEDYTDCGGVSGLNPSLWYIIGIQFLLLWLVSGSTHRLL
T1 sequence (Q02641 whole entry partner): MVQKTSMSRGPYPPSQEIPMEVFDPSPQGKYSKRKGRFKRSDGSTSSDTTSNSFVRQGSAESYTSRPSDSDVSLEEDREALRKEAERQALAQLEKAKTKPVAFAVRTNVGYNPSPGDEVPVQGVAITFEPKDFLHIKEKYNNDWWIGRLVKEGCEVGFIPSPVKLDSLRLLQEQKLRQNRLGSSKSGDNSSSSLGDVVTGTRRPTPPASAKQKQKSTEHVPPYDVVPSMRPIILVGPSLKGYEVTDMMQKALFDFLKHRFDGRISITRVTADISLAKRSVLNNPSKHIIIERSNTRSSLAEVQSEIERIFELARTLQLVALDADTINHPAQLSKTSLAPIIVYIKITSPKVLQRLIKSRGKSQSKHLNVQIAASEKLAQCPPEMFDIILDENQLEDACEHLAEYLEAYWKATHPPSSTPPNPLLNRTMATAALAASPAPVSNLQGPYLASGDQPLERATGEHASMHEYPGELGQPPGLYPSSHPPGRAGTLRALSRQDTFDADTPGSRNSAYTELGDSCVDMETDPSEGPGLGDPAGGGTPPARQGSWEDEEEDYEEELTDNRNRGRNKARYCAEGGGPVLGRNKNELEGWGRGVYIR

Compound | pIC50 [1] | Anti-Writhing % Protection (dose) [2]
CN[C@H](CC(C)C)C(=O)NCCCC(c1ccc(F)cc1)c1ccc(F)cc1 [Example 71, (R)-4-Methyl-2-methylamino-pentanoic acid [4,4-bis-(4-fluorophenyl)-butyl]-amide monohydrochloride] | 5.60 | 33.9% @ 10 mg/kg
CC(C)C[C@H](O)C(=O)NCCCC(c1ccc(F)cc1)c1ccc(F)cc1 [Example 72, (S)-2-Hydroxy-4-methyl-pentanoic acid [4,4-bis-(4-fluoro-phenyl)-butyl]-amide] | 5.72 | 
CN[C@H](C(=O)NCCCC(c1ccc(F)cc1)c1ccc(F)cc1)C(C)C [Example 73, (S)-3-Methyl-2-methylamino-butanoic acid [4,4-bis-(4-fluorophenyl)-butyl]-amide monohydrochloride] | 5.41 | 90.4% @ 10 mg/kg
CNCC(=O)NCCCC(c1ccc(F)cc1)c1ccc(F)cc1 [Example 74, N-[4,4-Bis-(4-fluoro-phenyl)-butyl]-2-methylamino-acetamide] | 5.54 | 
CN[C@@H](CNCCCC(c1ccc(F)cc1)c1ccc(F)cc1)CC(C)C [Example 77, (R)-N^1-[4,4-Bis-(4-fluoro-phenyl)-butyl]-4-N^2-dimethyl-pentane-1,2-diamine] | 5.66 | 43.4% @ 10 mg/kg
CC(C)CN(C)CC(=O)NCCCC(c1ccc(F)cc1)c1ccc(F)cc1 [Example 78, N-[4,4-Bis-(4-fluoro-phenyl)-butyl]-2-(isobutyl-methyl-amino)-acetamide] | 5.80 | 0% @ 10 mg/kg
(S)-N^1-[4,4-Bis-(4-fluoro-phenyl)-butyl]-4-N^2-dimethyl-pentane-1,2-diamine [Example 76] | 5.66 | 20.9% @ 10 mg/kg

Source: US6458781B1, “Substituted diarylalkyl amides as calcium channel antagonists” (priority 1998, dated 2002)
